{"source": "patent US10620188B2", "about": "“Using impedance-based cell response profiling to identify putative inhibitors for oncogene addicted targets or pathways” (ACEA Biosciences, Inc., priority 2002, dated 2020)", "key": {"H1993": {"tested_on": "H1993", "assay": "Impedance-based TCRP of Met addicted H1993 cells (xCelligence)", "assay_type": "cell-based, human", "settings": "H1993; increasing concentrations", "protocol": "Cells were treated with ACEA348 (0-10 uM) for 30 min.\n(§4) The cell index (CI) was normalized at time of compound addition.\nThe time-dependent cell response profiles (TCRP) were monitored prior to and after the compound addition using the xCelligence system (ACEA Biosciences/Roche applied sciences).\nThe Cell index was normalized against the cell index values at a time point just before compound addition. […] EC50 and IC50 of the Met inhibitor can be derived from the CI versus the corresponding log concentration of the inhibitor."}, "SK-MEL-28": {"tested_on": "SK-MEL-28", "assay": "Impedance-based TCRP of SK-MEL-28, b-Raf (V600E) addicted melanoma cells", "assay_type": "cell-based, human", "settings": "SK-MEL-28; increasing concentrations", "protocol": "(A) The impedance-based time-dependent cellular profiles (TCRPs) of SK-MEL28 in response to b-Raf inhibitor on xCelligence system (Roche/ACEA). […] The cell index (CI) was normalized at time of the compound addition. At the indicated time point of treatment (arrow), increasing concentrations of b-Raf inhibitor (from 0 to 10 uM) were added to the cells and the cell response was monitored. […] (B) EC50 of b-Raf derived from impedance-based TCRP.\nas §4\nCell lines. […] The time-dependent cell response profiles (TCRP) were monitored prior to and after the compound addition using the xCelligence system (ACEA Biosciences/Roche applied sciences).\n(§5) Kinase inhibitors including b-Raf inhibitors at different concentrations in DMSO were added into wells following the incubation period. The cell status was monitored prior to and after the compound addition using xCelligence system (Roche applied sciences). […] The Cell index was normalized against the cell index values at a time point just before compound addition."}, "C6": {"tested_on": "C6", "assay": "Impedance-based TCRP of PDGFR addicted C6 glioma cells", "assay_type": "cell-based, rat", "settings": "C6; increasing concentrations", "protocol": "as §4\nKinase inhibitors including PDGFR inhibitors at different concentrations in DMSO were added into wells following the incubation period. The cell status was monitored prior to and after the compound addition using xCelligence system (Roche applied sciences). […] The Cell index was normalized against the cell index values at a time point just before compound addition.\nIC50 of the PDGFR inhibitor can be derived from the CI versus the corresponding log concentration of the inhibitor."}, "Colo-205": {"tested_on": "Colo-205", "assay": "Impedance-based TCRP of Colo-205 cells, b-Raf (V600E)", "assay_type": "cell-based, human", "settings": "increasing concentrations", "protocol": "(A) The impedance-based time-dependent cellular profiles (TCRPs) of colo205 in response to b-Raf inhibitor on xCelligence system (Roche/ACEA). […] The cell index (CI) was normalized at time of the compound addition. At the indicated time point of treatment (arrow), increasing concentrations of b-Raf inhibitor (from 0 to 10 uM) were added to the cells and the cell response was monitored. […] (B) IC50 of b-Raf derived from impedance-based TCRP.\nas §4, §5"}, "SH-SY5Y": {"tested_on": "SH-SY5Y", "assay": "Impedance-based TCRP of SH-SY5Y cells, mutant ALK (F1174L)", "assay_type": "cell-based, human", "settings": "10 uM", "description": "The cell index (CI) was normalized at time of compound addition. […] DMSO was served as solvent control.\nThe cell index was normalized at time of compound addition. DMSO at the same dose was served as solvent control.\nas §4"}, "10T1/2 tva-H1047R": {"tested_on": "10T1/2 tva-H1047R", "assay": "Impedance-based TCRP of 10T1/2 tva-H1047R cells expressing human p110α (H1047R)", "assay_type": "cell-based, mouse", "protocol": "as §4\nA mouse fibroblast 10T1/2 expressing the cell-surface receptor TVA, which is specific for subgroup-A avian retroviruses was used. […] A549 is a human lung cancer cell line expressing wild-type p110α. T47D and BT20 are human breast cancer cell lines expressing mutant p110α (T47D) and p110α (P539R/H1047R), respectively.\n(§6) Then the normal growth medium (10% FBS) was exchanged with medium containing 0% FBS. The cells were incubated for additional 5 hours before compound treatment. A PI3K inhibitor (PI103) at different concentrations in DMSO was added into wells following the incubation period. The cell status was monitored prior to and after the compound addition using xCelligence system (Roche applied sciences). […] Cell index of the cells treated with solvent DMSO control was used as baseline. The Cell index was normalized against the cell index values at a time point just before compound addition."}, "10T1/2 tva": {"tested_on": "10T1/2 tva", "assay": "Impedance-based TCRP of control cell line 10T1/2 tva", "set-up": "species or system mouse", "settings": "10T1/2 tva control cell line; from 0 to 10 uM", "protocol": "as §4, §6"}, "A549": {"tested_on": "A549", "assay": "Impedance-based TCRP of A549 cells (wild-type p110α) to PI3K inhibitor", "assay_type": "cell-based, human", "settings": "A549 expressing wild-type p110α; serum starved 5 hour", "experimental": "(§1) Cells were serum starved for 5 hour. The cell index was normalized at time of compound addition. At the indicated time point of treatment, increasing concentrations of PI103 (0-10 uM) was added to the cells and the cell responses were monitored.\n(§2) Cell lines. A mouse fibroblast 10T1/2 expressing the cell-surface receptor TVA, which is specific for subgroup-A avian retroviruses was used. The cells were transformed by infection with human p110α (H1047R)-expressing avian retrovirus and are referred to as 10T1/2 tva-H1047R. A549 is a human lung cancer cell line expressing wild-type p110α. T47D and BT20 are human breast cancer cell lines expressing mutant p110α (T47D) and p110α (P539R/H1047R), respectively.\n(§3) To test if the characteristic TCRP is specific to PI3K inhibition, we also test the cell responses in several other cell lines (FIG. 35). […] Such characteristic TCRP could be used for identifying or screening unknown biologically active agents which may act as PI3K inhibitors."}, "T47D": {"tested_on": "T47D", "assay": "Impedance-based TCRP of T47D cells (mutant p110α) to PI3K inhibitor", "assay_type": "cell-based", "settings": "Homo sapiens, 10 min", "experimental": "as §1, §2, §3"}, "BT20": {"tested_on": "BT20", "assay": "Impedance-based TCRP of BT20 cells (p110α P539R/H1047R) to PI3K inhibitor", "assay_type": "cell-based", "settings": "Homo sapiens, BT-20, 10 min", "experimental": "as §1, §2, §3"}, "AKT phosphorylation": {"tested_on": "AKT phosphorylation", "assay": "Western analysis of PI3K downstream signal in 10T1/2 tva-H1047R and 10T1/2 tva", "assay_type": "cell-based, mouse", "settings": "10 uM; treated for 2 hours; serum starved 5 hours", "description": "Cells were lysed and subject to Western analyses. […] Equal intensity of GAPDH bands indicated equal protein loading."}, "RBL-2H3 PDGFRβ": {"tested_on": "RBL-2H3 PDGFRβ", "assay": "Impedance response of engineered RBL-2H3 PDGFRβ cells to PDGF stimulation and PDGFR inhibition", "assay_type": "cell-based, rat", "settings": "serum starved 2 hour, peak normalized CI response", "protocol": "RBL-2H3 PDGFRβ cells were seeded at 20,000 cells per well of 96-well E-plate (Roche/ACEA). The cells were continuously monitored using the xCelligence system (Roche/ACEA). […] The cell index (CI) was normalized at time of compound addition. Time zero depicts the time point of treatment. […] The cell index (CI) was normalized at time of compound addition. Time zero depicts the time point of treatment."}, "RBL-2H3": {"tested_on": "RBL-2H3", "assay": "Impedance response of parental RBL-2H3 cells", "assay_type": "cell-based, rat", "settings": "RBL-2H3 parental", "experimental": "Cell lines. RBL2H3-PDGFR is engineered rat basophilic cell line that expresses exogenous PDGFRβ. RBL2H3 is the parental cell line.\nRBL2H3-PDGFR overexpressing PDGFRβ was constructed by Lenti viral transduction of RBL2H3. Both RBL2H3-PDGFR and RBL2H3 cells were seeded at 20,000 cells per well of 96-well E-plate (Roche/ACEA). The cells were continuously monitored using the xCelligence system (Roche/ACEA).\nCells were serum starved for 2 hour, then stimulated by addition of PDGF BB (0-50 ng/ml). […] Plotting the peak normalized CI response versus the corresponding log concentration allows for calculation of the EC50 (1.07 ng.mL) of PDGF acting on PDGFR in the engineered cell line.\nThis dose-dependent decease in the CI is specific to PDGFR inhibition."}}, "data": [{"molecule": "COc1cc2ncnc(Nc3ccc(F)c(Cl)c3)c2cc1OCCCN1CCOCC1", "note": "[Gefitinib]", "values": [{"measurement": "TCRP (Cell Index response)", "setting": "H1993", "value": "None of these inhibitors induced a TCRP similar to PF2341006"}, {"measurement": "TCRP (Cell Index response)", "setting": "SK-MEL-28", "value": "did not affect CI changes that are significantly different from the negative control"}, {"measurement": "TCRP (Cell Index response)", "setting": "C6", "value": "did not affect CI changes that are significantly different from the negative control"}, {"measurement": "TCRP (Cell Index response, cell growth)", "setting": "Colo-205", "value": "did not inhibit Colo205 cell growth"}, {"measurement": "TCRP (Cell Index response)", "setting": "SH-SY5Y", "value": "None trigged a TCRP representative to that trigger by ALK inhibitors"}]}, {"molecule": "Oc1cccc(-c2nc(N3CCOCC3)c3oc4ncccc4c3n2)c1", "note": "[PI103]", "values": [{"measurement": "TCRP (Cell Index response)", "setting": "10T1/2 tva-H1047R; 10T1/2 tva-H1047R in the presence of siRNA targeting human p110α, within 10 min of compound addition", "value": "no sharp decrease"}, {"measurement": "TCRP (Cell Index response)", "setting": "10T1/2 tva-H1047R; 10T1/2 tva-H1047R, serum starved, from 0 to 10 uM", "value": "immediate decrease"}, {"measurement": "IC50", "setting": "10T1/2 tva-H1047R; Mus musculus, 5 h, read-out: IC50 (TCRP)", "value": 89, "unit": "nM"}, {"measurement": "TCRP (Cell Index response)", "setting": "10T1/2 tva", "value": "did not show a clear dose response"}, {"measurement": "TCRP (Cell Index response)", "setting": "A549", "value": "did not show clear dose response"}, {"measurement": "IC50", "setting": "T47D", "value": 126, "unit": "nM"}, {"measurement": "IC50", "setting": "BT20", "value": 165, "unit": "nM"}, {"measurement": "PI3K downstream signal (AKT phosphorylation), Western", "setting": "AKT phosphorylation", "value": "efficiently inhibited"}]}, {"molecule": "PDGF: PDGF BB, ligand used to stimulate PDGFRβ", "values": [{"measurement": "EC50 of PDGF acting on PDGFR", "setting": "RBL-2H3 PDGFRβ", "value": 1.07, "unit": "ng·mL"}, {"measurement": "Cell Index response of parental cell line", "setting": "RBL-2H3", "value": "did not show any response"}]}]}
